Drawing on patent US20250268903A1, “RXFP1 AGONISTS” (BRISTOL-MYERS SQUIBB COMPANY, priority 2021, published 2025), this text covers EC50 for 20 molecules.

Molecules are shown by their SMILES.

In this assay the target is T1, human RXFP1 (Homo sapiens, UniProt Q9HBX9).
T1 construct: expressed in transfected cells
T1 sequence (Q9HBX9 1-757): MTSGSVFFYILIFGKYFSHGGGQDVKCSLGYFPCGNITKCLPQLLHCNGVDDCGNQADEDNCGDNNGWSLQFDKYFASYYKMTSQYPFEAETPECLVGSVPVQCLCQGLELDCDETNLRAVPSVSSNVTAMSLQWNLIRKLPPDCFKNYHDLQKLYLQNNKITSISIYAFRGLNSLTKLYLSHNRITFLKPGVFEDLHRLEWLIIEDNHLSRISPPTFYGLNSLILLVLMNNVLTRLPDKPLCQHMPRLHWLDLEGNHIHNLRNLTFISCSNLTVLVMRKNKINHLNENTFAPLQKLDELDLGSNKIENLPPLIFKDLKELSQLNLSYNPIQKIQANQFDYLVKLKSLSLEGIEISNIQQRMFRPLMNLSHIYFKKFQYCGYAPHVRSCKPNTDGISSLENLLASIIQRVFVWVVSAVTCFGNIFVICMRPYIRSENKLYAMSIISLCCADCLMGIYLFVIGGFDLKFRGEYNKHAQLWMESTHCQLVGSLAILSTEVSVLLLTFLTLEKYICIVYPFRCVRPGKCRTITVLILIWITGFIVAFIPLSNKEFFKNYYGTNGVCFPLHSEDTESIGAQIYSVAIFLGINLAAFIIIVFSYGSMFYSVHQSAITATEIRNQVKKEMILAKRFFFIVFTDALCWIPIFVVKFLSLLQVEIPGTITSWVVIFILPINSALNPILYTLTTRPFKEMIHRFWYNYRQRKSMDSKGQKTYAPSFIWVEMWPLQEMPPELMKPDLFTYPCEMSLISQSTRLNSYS
The assay can be described thus: hRXFP1 HEK293 cAMP assay (HTRF). It is filed as cell-based. As to conditions: HEK293 cells stably expressing human RXFP1, 30 min at room temperature. An outline of the steps: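 hRXFP1-HEK293 stable line; HBSS + Ca/Mg, 20 mM HEPES, 0.05% BSA, 0.5 mM IBMX; cpd 0.010 nM–50 μM, 2% DMSO; 30 min RT; lysis, HTRF cAMP detection; 4-PL fit.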
On to `COc1ccc(COCCC(=O)O)cc1C(=O)N[C@@H]1C2CCC(C2=C(C)C)[C@@H]1C(=O)Nc1ccc(F)c(C(F)(F)F)c1` (stereo partly drawn) [Example 30, 3-[(3-{[(2R,3S)-3-{[4-fluoro-3-(trifluoromethyl)phe-nyl]carbamoyl}-7-(propan-2-ylidene)bicyclo[2.2.1]heptan-2-yl]carbamoyl}-4-methoxyphenyl)meth-oxy]propanoic acid], for which the EC50 is 710 nM.

Molecule `COc1ccc(C2CCCC(O)C2)cc1C(=O)N[C@@H]1C2CCC(/C2=C/C(F)(F)F)[C@@H]1C(=O)Nc1ccc(F)c(C(F)(F)F)c1` (single isomer, unassigned) [Example 35] had an EC50 of 667 nM.

With `COc1c(F)cc(C(=O)N2CC(S(C)(=O)=O)C2)cc1C(=O)N[C@H]1[C@@H](C(=O)Nc2ccc(F)c(C(F)(F)F)c2)[C@H]2CC[C@@H]1/C2=C\C1CCCC1` [Example 365, (1R,2S,3R,4R,7Z)-7-(cyclopentyl-methylidene)-N-[4-fluoro-3-(trifluoromethyl)phenyl]-3-[3-fluoro-5-(3-methanesulfonyl-azetidine-1-carbonyl)-2-methoxybenzamido] bicyclo[2.2.1]heptane-2-carboxamide], the concentration giving a half-maximal response (EC50) amounted to 2.8 nM.

Molecule `COc1ccc(CCC2CCOCC2)cc1C(=O)NC1C2CCC(/C2=C/C(F)(F)F)[C@@H]1C(=O)Nc1ccc(F)c(C(F)(F)F)c1` (some centres unmarked) [Example 180, (7Z)-N-[4-fluoro-3-(trifluoromethyl)phe-nyl]-3-{2-methoxy-5-[2-(oxan-4-yl)ethyl]benzamido}-7-(2,2,2-trifluoroethylidene)bi-cyclo[2.2.1]heptane-2-carboxamide] registered an EC50 of 168 nM.

`COc1ccc(C(=O)N2CCN(CC(F)F)CC2)cc1C(=O)N[C@H]1[C@@H](C(=O)Nc2ccc(F)c(C(F)(F)F)c2)[C@H]2CC[C@@H]1/C2=C\C1CC1` [Example 255, (1R,2S,3R,4R,7Z)-7-(cyclopropyl-methylidene)-3-{5-[4-(2,2-difluoroethyl)piperazine-1-carbonyl]-2-methoxybenzamido}-N-[4-fluoro-3-heptane-2-(trifluoromethyl)phenyl]bicyclo [2.2.1] carboxamide]: it took 73.4 nM to reach a half-maximal effect (EC50).

Consider `O=C(N[C@@H]1C2CCC(/C2=C/C(F)(F)F)[C@@H]1C(=O)Nc1ccc(F)c(C(F)(F)F)c1)c1cc(CCCO)ccc1OCCO` (stereo partly drawn) [Example 107, (2S,3R,7Z)-N-[4-fluoro-3-(trifluoromethyl)phe-nyl]-3-[2-(2-hydroxyethoxy)-5-(3-hydroxypropyl)benz-amido]-7-(2,2,2-trifluoroethylidene)bi-cyclo[2.2.1]heptane-2-carboxamide], for which the concentration giving a half-maximal response (EC50) is 815 nM.

Turning to `COc1ccc(C(=O)N2CC[C@@H](CO)C2)cc1C(=O)N[C@H]1[C@@H](C(=O)Nc2ccc(F)c(C(F)(F)F)c2)[C@H]2CC[C@@H]1/C2=C\C1CC1` [Example 245, (1R,2S,3R,4R,7Z)-7-(cyclopropyl-methylidene)-N-[4-fluoro-3-(trifluoromethyl)phenyl]-3-{5-[(3R)-3-(hydroxymethyl)pyrrolidine-1-carbonyl]-2-methoxybenzamido} bicyclo[2.2.1]heptane-2-carboxamide], the EC50 stood at 37.8 nM.

As to `COc1ccc(S(=O)(=O)N2CCNCC2CCO)cc1C(=O)N[C@H]1[C@@H](C(=O)Nc2ccc(F)c(C(F)(F)F)c2)[C@H]2CC[C@@H]1/C2=C\C(F)(F)F` (stereo partly drawn) [Example 216, (1R,2S,3R,4R,7Z)-N-[4-fluoro-3-(trifluoromethyl)phenyl]-3-(5-{[2-(2-hydroxyethyl)piperazin-1-yl]sulfonyl}-2-methoxybenzamido)-7-(2,2,2-trifluoroethylidene) bicyclo[2.2.1]heptane-2-carboxamide], a half-maximal effect (EC50) was put at 281 nM.

Regarding `COc1ccc(C2CC3(CC(N)C3)C2)cc1C(=O)NC1C2CCC(/C2=C/C(F)(F)F)[C@@H]1C(=O)Nc1ccc(F)c(C(F)(F)F)c1` (stereo partly drawn) [Example 154, (2S,3R,7Z)-3-(5-{6-aminospiro[3.3]hept-an-2-yl}-2-methoxybenzamido)-N-[4-fluoro-3-(trifluoromethyl)phe-nyl]-7-(2,2,2-trifluoroethylidene)bi-cyclo[2.2.1]heptane-2-carboxamide], the midpoint of the response, the EC50, lay at 1050 nM.

For the molecule `COc1ccc(S(=O)(=O)N2CCOC[C@H]2CO)cc1C(=O)N[C@H]1[C@@H](C(=O)Nc2ccc(F)c(C(F)(F)F)c2)[C@H]2CC[C@@H]1/C2=C\C1CC1` [Example 224, (1R,2S,3R,4R,7Z)-7-(cyclopropylmethyl-idene)-N-[4-fluoro-3-(trifluoromethyl)phenyl]-3-(5-{[(3R)-3-(hydroxymethyl)morpholin-4-yl]sulfonyl}-2-methoxybenzamido) bicyclo[2.2.1] heptane-2-carboxamide], the half-maximal effective concentration (EC50) is 80.3 nM.

Regarding `COc1ccc(CCN2CCOC2=O)cc1C(=O)NC1C2CCC(/C2=C/C(F)(F)F)[C@@H]1C(=O)Nc1ccc(F)c(C(F)(F)F)c1` (some centres unmarked) [Example 182, (7Z)-N-[4-fluoro-3-(trifluoromethyl)phe-nyl]-3-{2-methoxy-5-[2-(2-oxo-1,3-oxazolidin-3-yl)ethyl]benzamido}-7-(2,2,2-trifluoroethylidene)bi-cyclo[2.2.1]heptane-2-carboxamide], the midpoint of the response, the EC50, lay at 139 nM.

Regarding `COc1ccc(CCC(=O)N2CCC(O)CC2)cc1C(=O)N[C@H]1[C@@H](C(=O)Nc2ccc(F)c(C(F)(F)F)c2)[C@H]2CC[C@@H]1/C2=C\C(F)(F)F` [Example 320], the concentration giving a half-maximal response (EC50) worked out at 81.2 nM.

As for `COc1ccc(C(=O)NCCCO)cc1C(=O)N[C@H]1[C@@H](C(=O)Nc2ccc(F)c(C(F)(F)F)c2)[C@H]2CC[C@@H]1/C2=C\C1CC1` [Example 229, N3-[(1R,2R,3S,4R,7Z)-7-(cyclopropyl-methylidene)-3-{[4-fluoro-3-(trifluoromethyl)phenyl]carbamoyl}bicyclo[2.2.1]heptan-2-yl]-N1-(3-hydroxypropyl)-4-methoxybenzene-1,3-dicarboxamide], the EC50 came out at 183 nM.

In turn, `COc1ccc(S(=O)(=O)Cc2ccccc2)cc1C(=O)N[C@@H]1C2CCC(/C2=C/C(F)(F)F)[C@@H]1C(=O)Nc1ccc(F)c(C(F)(F)F)c1` (stereo partly drawn) [Example 3, (2S,3R,7Z)-N-[4-fluoro-3-(trifluoromethyl)phe-nyl]-3-(2-methoxy-5-phenylmethanesulfo-nylbenzamido)-7-(2,2,2-trifluoroethylidene)bi-cyclo[2.2.1]heptane-2-carboxamide] yielded a half-maximal effective concentration (EC50) of 560 nM.

`COc1ccc(CCC(C)(C)O)cc1C(=O)N[C@@H]1C2CCC(/C2=C/C2CC2)[C@@H]1C(=O)Nc1ccc(F)c(C(F)(F)F)c1` (stereo partly drawn) [Example 90, (2S,3R,7Z)-7-(cyclopropylmethyli-dene)-N-[4-fluoro-3-(trifluoromethyl)phe-nyl]-3-[5-(3-hydroxy-3-methylbutyl)-2-methoxybenzamido] bicyclo[2.2.1]heptane-2-carboxamide] came in with a concentration for a half-maximal effect (EC50) of 14 nM.

In turn, `COc1ccc(CCC(C)(C)O)cc1C(=O)N[C@@H]1C2CCC(/C2=C/C2CCC2)[C@@H]1C(=O)Nc1ccc(F)c(C(F)(F)F)c1` (stereo partly drawn) [Example 87, (2S,3R,7Z)-7-(cyclobutylmethyli-dene)-N-[4-fluoro-3-(trifluoromethyl)phe-nyl]-3-[5-(3-hydroxy-3-methylbutyl)-2-methoxybenzamido] bicyclo[2.2.1]heptane-2-carboxamide] had an EC50 of 9 nM.

With `COc1ccc(CCC(C)C)cc1C(=O)N[C@@H]1C2CCC(/C2=C/C(F)(F)F)[C@@H]1C(=O)Nc1ccc(F)c(C(F)(F)F)c1` (some centres unmarked) [Example 83], a half-maximal response (EC50) required 1710 nM.

In turn, `COc1ccc(COC2CCOC2)cc1C(=O)N[C@@H]1C2CCC(/C2=C/C(F)(F)F)[C@@H]1C(=O)Nc1ccc(F)c(C(F)(F)F)c1` (stereo partly drawn) [Example 27, (2S,3R,7Z)-N-[4-fluoro-3-(trifluoromethyl)phe-nyl]-3-{2-methoxy-5-[(oxolan-3-yloxy)methyl]benza-mido}-7-(2,2,2-trifluoroethylidene)bi-cyclo[2.2.1]heptane-2-carboxamide] came in with an EC50 of 4680 nM.

In turn, `COc1ccc(CCCNCC(O)(C(F)(F)F)C(F)(F)F)cc1C(=O)N[C@H]1[C@@H](C(=O)Nc2ccc(F)c(C(F)(F)F)c2)[C@H]2CC[C@@H]1/C2=C\C(F)(F)F` [Example 117, (1R,2S,3R,4R,Z)—N-(4-fluoro-3-(trifluoromethyl)phenyl)-3-(2-methoxy-5-(3-((3,3,3-trifluoro-2-hydroxy-2-(trifluoromethyl)propyl)amino)propyl)benzamido)-7-(2,2,2-trifluoroethylidene) bicyclo[2.2.1]heptane-2-carboxamide] showed a 50% effective concentration (EC50) of 1240 nM.

For the molecule `COc1ccc(C2CC(CO)C2)cc1C(=O)N[C@H]1[C@@H](C(=O)Nc2ccc(F)c(C(F)(F)F)c2)[C@H]2CC[C@@H]1/C2=C\C1CC1` (stereo partly drawn) [Example 330, (1R,2S,3R,4R,7Z)-7-(cyclopropylmethylidene)-N-[4-fluoro-3-(trifluoromethyl)phenyl]-3-{5-[3-(hydroxymethyl)cyclobutyl]-2-methoxybenzamido} bicyclo[2.2.1]heptane-2-carboxamide], the 50% effective concentration (EC50) was 79 nM.
